{"source": "patent US11389452B2", "about": "“Methods for increasing blood plasma 2′-deoxyuridine (dUrd) and thymidylate synthase inhibition” (Isofol Medical AB, priority 2017, dated 2022)", "key": {"TS": {"system": "TS", "conditions": "cited from earlier work"}, "colorectal cancer": {"system": "colorectal cancer", "conditions": "cited from earlier work"}, "[1]": {"biological_target": "T1, thymidylate synthase (TS) (Homo sapiens, UniProt P04818)", "T1 construct": "endogenous in cells; host or cells: patients with metastatic colorectal cancer (in vivo); plasma sampled", "T1 sequence (P04818 2-313 limits assumed)": "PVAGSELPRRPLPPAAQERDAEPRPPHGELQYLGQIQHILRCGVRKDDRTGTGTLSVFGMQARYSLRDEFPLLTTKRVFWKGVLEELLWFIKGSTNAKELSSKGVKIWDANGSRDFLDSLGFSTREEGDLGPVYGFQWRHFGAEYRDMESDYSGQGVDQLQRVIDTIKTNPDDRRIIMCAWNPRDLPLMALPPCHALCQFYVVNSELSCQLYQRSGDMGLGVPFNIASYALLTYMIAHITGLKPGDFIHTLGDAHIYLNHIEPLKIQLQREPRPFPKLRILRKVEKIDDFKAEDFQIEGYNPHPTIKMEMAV", "assay": "Incremental plasma dUrd (surrogate marker of TS inhibition) 24 hours after bolus 5-FU plus folate in mCRC patients, by LC-MS/MS", "type": "in vivo", "conditions": "for Mean (t24 − t0) plasma dUrd: 24 hours", "description": "The safety and efficacy of [6R]-5,10-methylenetetrahydrofolate ([6R]-MTHF) is analyzed in an open-label, multiple-site, Phase I/II Dose Cohort Trial (ISO-CC-005) in patients with stage IV colorectal cancer (mCRC) to determine the safe and tolerable i.v. bolus dose of 6R-MTHF in combination with standard doses of 5-FU (500 mg/m^2) alone or in combination with a fixed dose of Bevacizumab, Oxaliplatin or Irinotecan in patients with stage IV colorectal cancer. Among groups of patients (n≥3) ascending 6R-MTHF doses of 30-240 mg/m^2 BSA are being evaluated in the presence of various permutations of the cytotoxics, 5-FU alone or 5-FU plus oxaliplatin, bevacizumab or irinotecan given at standard dose levels. The study is expected to be completed by year end 2017. A summary of the study design and each study arm is depicted below in Table 1.\nIn Gothenburg, for almost two decades, clinical, treatment and outcomes data on all patients with CRC have been collected. Plasma and tissue samples have been stored in a biobank under appropriate physical conditions for long term storage. The database and the biobank operate under the auspices of the relevant ethical and regulatory permissions. Patients having been treated with the standard 5-FU dose, 500 mg/m^2 plus i.v. bolus LV, 60 mg/m^2 (equivalent to 30 mg/m^2 of LLV) were randomly drawn from the databank.\nThe present study is a historical group comparison study. All patients have been treated with a standard dose of 500 mg 5-FU given as a bolus injection plus the respective folate 6R-MTHF or LV also given as bolus injections.\nAll patients have been measured during two consecutive treatment cycles with 5-FU. Values for dUrd were measured immediately before injection of 5-FU (t0) and after 24 hours (t24). Mean values and standard deviations for differences between t24 and t0 were calculated for the patients on each dose level of 30 and 60 mg/m^2 6R-MTHF, respectively. Some values have also been assayed and calculated for 240 mg/m^26R-MTHF.\nTwenty-four patients with metastatic colorectal cancer (mCRC) treated with 5-FU plus 60 mg/m^2 LV were drawn at random from the data base and levels of dUrd were determined at t0 and t24 from two treatment cycles for each patient and the mean values and standard deviations for the differences between t24 and t0 were calculated in the same way as for the 6R-MTHF patients. Since LV is a 50:50 mixture of the natural (1-formyl-tetrahydrofolate) and unnatural (d-formyl-tetrahydrofolate) isomers the active isomer constitutes one half of the LV doses given. The molecular weights for LV and 6R-MTHF are very similar and therefore 60 mg of LV may be considered as equimolar with 30 mg of 6R-MTHF.\nThe differences between all four groups were tested by means of the Friedman two-way analysis of variance and thereafter the difference between the two equimolar groups LV 60 mg/m^2 and 6R-MTHF 30 mg/m^2 was tested by means of the Mann-Whitney U test. P-values less than 0.05 were considered significant.\nPlasma dUrd was determined by a method comprising liquid chromatography followed by tandem mass spectrometry broadly summarized as follows. Plasma samples were removed from −80° C. freezer, trichloroacetic acid was added to the plasma, and the samples mixed and centrifuged. The supernatant was filtered in a 10 kDa molecular weight cut-off membrane filter and again centrifuged for 30 min. The solution at the bottom of the tube was then ready for LC-MS/MS analysis. […]"}, "pancreas cancer": {"system": "pancreas cancer", "conditions": "CoFactor combined with 5-FU, phase I/II trial; cited from earlier work"}}, "data": [{"smiles": "Nc1nc2c(c(=O)[nH]1)N1CN(c3ccc(C(=O)N[C@@H](CCC(=O)O)C(=O)O)cc3)C[C@@H]1CN2", "note": "(single isomer, unassigned) [(6S)-isomer]", "values": [{"measurement": "effect on the natural [6R]-isomer as co-substrate for TS", "setting": "TS", "result": "partial competitive inhibitor"}]}, {"smiles": "O=c1[nH]cc(F)c(=O)[nH]1", "note": "[5-FU, 5-Fluorouracil]", "values": [{"measurement": "overall response rate", "setting": "colorectal cancer; 5-FU alone", "result": "10-15%"}]}, {"smiles": "Nc1nc2c(c(=O)[nH]1)N1CN(c3ccc(C(=O)N[C@@H](CCC(=O)O)C(=O)O)cc3)C[C@H]1CN2", "note": "[6R-MTHF, [6R]-5,10-methylenetetrahydrofolic acid]", "values": [{"measurement": "Mean (t24 − t0) plasma dUrd", "setting": "[1]; 6R-MTHF 30 mg/m2 BSA bolus with 5-FU 500 mg/m2 bolus, 18 cycles", "result": 74.7, "unit": "pmol/mL"}, {"measurement": "Mean (t24 − t0) plasma dUrd", "setting": "[1]; 6R-MTHF 60 mg/m2 BSA bolus with 5-FU 500 mg/m2 bolus, 16 cycles", "result": 91.8, "unit": "pmol/mL"}, {"measurement": "Mean (t24 − t0) plasma dUrd", "setting": "[1]; 6R-MTHF 240 mg/m2 BSA bolus with 5-FU 500 mg/m2 bolus, 4 cycles", "result": 99.9, "unit": "pmol/mL"}, {"measurement": "level of dUrd compared with equimolar LV", "setting": "[1]; [6R]-MTHF 30 mg/m2 vs LV 60 mg/m2, together with 5-FU, p=0.03", "result": "significantly higher level of dUrd"}]}, {"smiles": "Nc1nc(=O)c2c([nH]1)NCC1CN(c3ccc(C(=O)N[C@@H](CCC(=O)[O-])C(=O)[O-])cc3)CN21.[Ca+2]", "note": "(stereo partly drawn) [CoFactor®, (dl)-5,10,-methylenepteroyl-monoglutamate calcium salt]", "values": [{"measurement": "clinical benefit (stable disease or tumor response), share of patients", "setting": "pancreas cancer", "result": 40, "unit": "%"}, {"measurement": "response rate", "setting": "colorectal cancer; Phase II trial, previously untreated metastatic colorectal cancer", "result": 35, "unit": "%"}, {"measurement": "efficacy and safety compared with leucovorin", "setting": "colorectal cancer; Phase IIb study in colorectal cancer", "result": "not demonstrated to be more efficacious than leucovorin"}]}, {"smiles": "Nc1nc(=O)c2c([nH]1)NC[C@H](CNc1ccc(C(=O)N[C@@H](CCC(=O)O)C(=O)O)cc1)N2C=O", "note": "[LLV]", "values": [{"measurement": "Mean (t24 − t0) plasma dUrd", "setting": "[1]; active dose 30 mg/m2 BSA LLV, given as 60 mg/m2 d,l-LV bolus, with 5-FU 500 mg/m2 bolus, 48 cycles", "result": 48.7, "unit": "pmol/mL"}]}, {"smiles": "Nc1nc2c(c(=O)[nH]1)N(C=O)C(CNc1ccc(C(=O)N[C@@H](CCC(=O)O)C(=O)O)cc1)CN2", "note": "(some centres unmarked) [LV, 5-formyl tetrahydrofolate]", "values": [{"measurement": "overall response rates", "setting": "colorectal cancer; LV added to 5-FU", "result": "over 20%"}]}]}
